Reference: patent publication US20200038399A1, “FORMULATIONS, METHODS, KIT, AND DOSAGE FORMS FOR TREATING BACTERIAL INFECTION” (Motif BioSciences Inc., priority 2016, published 2020)

Columns and labels:
[1] = tested on: Haemophilus influenzae ATCC 49766; assay: checkerboard synergy assay with iclaprim; format: cell-based; conditions: antibiotic in combination with iclaprim; H. influenzae 49766
Procedure: (§1) The synergistic potential of iclaprim against Gram-positive and Gram-negative bacteria was determined using the checkerboard assay as described in Eliopoulos GM and Moellering, Jr. RC (1991), Antimicrobial combinations, pp. 432-492, in V. Lorian (ed.), Antibiotics in laboratory medicine, 3rd Ed., The Williams & Wilkins Co., Baltimore, the entire disclosure of which is herein incorporated by reference, allowing multiple test concentrations of iclaprim to be assayed in the presence of various concentrations of the other antibiotic in microtiter plates. The same growth media and conditions were used as described in 3.2 below.
(§2) Two different dilutions were used for iclaprim depending on the MIC determined for the bacterium. […] Iclaprim and the other antibiotic being tested were also dispensed alone in the last row and in the last column, respectively, as controls.
(§3) The Fractional Inhibitory Concentrations (FIC) for each added agent were calculated and used to determine the sum of FIC (ΣFIC) indicative of the synergistic potential of a given combination as described in Veyssier P. (1999), Inhibiteurs de la dihydrofolate reductase, nitrohétérocycles (furanes) et 8-hydroxyquinoleines, pp. 995-1027, in A. Bryskier (ed.), Antibiotiques agents antibatériens et antifongiques, 1st Ed., Ellipses Edition Marketing SA, Paris, the entire disclosure of which is herein incorporated by reference. Synergy was defined whereby the ΣFIC was <0.5, indifference (no synergy nor antagonism) whereby ΣFIC was ≥0.5 but ≤4, and antagonism whereby ΣFIC was >4. Additivity as a special form of indifference was defined whereby the ΣFIC was ≥0.5 but <1, for example as described in Stevens, D L et al. (1998), In vitro antimicrobial effects of various combinations of penicillin and clindamycin against four strains of Streptococcus pyogenes, J. Antimicrob. Chemother. 42: 1266-1268, the entire disclosure of which is herein incorporated by reference.

[2] = tested on: Streptococcus pneumoniae ATCC 49619; assay: checkerboard synergy assay with iclaprim; format: cell-based; conditions: antibiotic in combination with iclaprim; S. pneumoniae 49619
Procedure: as §1, §2, §3

[3] = tested on: Klebsiella pneumoniae ATCC 33495; assay: checkerboard synergy assay with iclaprim; format: cell-based; conditions: antibiotic in combination with iclaprim; K. pneumoniae 33495
Procedure: as §1, §2, §3

[4] = tested on: Staphylococcus aureus ATCC 25923; assay: checkerboard synergy assay with iclaprim; format: cell-based; conditions: antibiotic in combination with iclaprim; S. aureus 25923
Procedure: as §1, §2, §3

[5] = tested on: Moraxella catarrhalis RA 21; assay: checkerboard synergy assay with iclaprim; format: cell-based; conditions: antibiotic in combination with iclaprim; M. catarrhalis RA 21
Procedure: as §1, §2, §3

[6] = tested on: Haemophilus influenzae ATCC 49766; assay: MIC determination; format: cell-based; conditions: H. Influenza 49766, 18 hours at 37° C., 5% CO2; for MIC: Haemophilus influenzae, ATCC49766, read-out: Minimum inhibitory concentrations (MIC)
Procedure: (§4) Minimum inhibitory concentration (MIC) determination.
(§5) In order to choose the appropriate concentrations to be tested in the checkerboard experiments, minimum inhibitory concentrations (MICs) were determined first. […] Table 6) in microtiter plates. Stock solutions (10 mg/ml) of reference antibiotics were prepared in DMSO (except for tobramycin, gentamicin, lomefloxacin, tetracycline) and stored at 4° C. The bacteria were grown in Mueller-Hinton Broth (BBL Mueller-Hinton Broth II, cation adjusted). S. pneumoniae was grown in Mueller-Hinton Broth supplemented with 5% (v/v) lysed sheep blood. For the growth of H. influenzae HTM (Haemophilus test medium) was used containing Mueller-Hinton broth, yeast extract ([…], Difco) and supplemented with NAD and hematin (HTM Supplement, Oxoid SR0158E). M. catarrhalis was grown in Brain Heart Infusion medium (Oxoid). The bacteria were incubated for 18 hours at 37° C. in ambient air except for S. pneumoniae, H. influenzae and M. catarrhalis, which were incubated in the presence of 5% CO2. The MIC was determined as the lowest concentration of an individual drug that lead to no visible growth.

[7] = tested on: Streptococcus pneumoniae ATCC 49619; assay: MIC determination; format: cell-based; conditions: S. pneumoniae 49619, 18 hours at 37° C., 5% CO2; for MIC: Streptococcus pneumoniae, ATCC49619, read-out: Minimum inhibitory concentrations (MIC)
Procedure: as §4, §5

[8] = tested on: Klebsiella pneumoniae ATCC 33495; assay: MIC determination; format: cell-based; conditions: K. pneumonia 33495, 18 hours at 37° C.; for MIC: Klebsiella pneumoniae, ATCC33495, read-out: Minimum inhibitory concentrations (MIC)
Procedure: as §4, §5

[9] = tested on: Staphylococcus aureus ATCC 25923; assay: MIC determination; format: cell-based; conditions: S. aureus 25923, 18 hours at 37° C.; for MIC: Staphylococcus aureus, ATCC25923, read-out: Minimum inhibitory concentrations (MIC)
Procedure: as §4, §5

[10] = tested on: Moraxella catarrhalis RA 21; assay: MIC determination; format: cell-based; conditions: M. catarrhalis RA 21, 18 hours at 37° C., 5% CO2; for MIC: Moraxella catarrhalis, RA21, read-out: Minimum inhibitory concentrations (MIC)
Procedure: as §4, §5

S. aureus 101 [11] = assay: MIC determination; format: cell-based, Staphylococcus aureus; conditions: for MIC: Staphylococcus aureus, 101, 18 h, read-out: Minimum inhibitory concentrations (MIC)
Procedure: as §4, §5

S. aureus 101 [12] = assay: checkerboard synergy assay with iclaprim; format: cell-based, Staphylococcus aureus; conditions: antibiotic in combination with iclaprim
Procedure: as §1, §2, §3

S. pneumoniae 1/1 [13] = assay: MIC determination; format: cell-based, Streptococcus pneumoniae; conditions: S. pneumoniae 1/1, 18 hours at 37° C., 5% CO2; for MIC: Streptococcus pneumoniae, read-out: Minimum inhibitory concentrations (MIC)
Procedure: as §4, §5

S. pneumoniae 1/1 [14] = assay: checkerboard synergy assay with iclaprim; format: cell-based, Streptococcus pneumoniae; conditions: antibiotic in combination with iclaprim
Procedure: as §1, §2, §3

| Structure (SMILES) | Con (Conclusion) [1] | Σ FIC [1] | Σ FIC [2] | Con (Conclusion) [3] | Σ FIC [3] | Σ FIC [4] | Con (Conclusion) [5] | Σ FIC [5] | MIC [6] [µg/mL] | MIC [7] [µg/mL] | MIC [8] [µg/mL] | MIC [9] [µg/mL] | MIC [10] [µg/mL] | MIC (S. aureus 101 [11]) [µg/mL] | Σ FIC (S. aureus 101 [12]) | MIC (S. pneumoniae 1/1 [13]) [µg/mL] | Σ FIC (S. pneumoniae 1/1 [14]) | further results |
| --- | --- | --- | --- | --- | --- | --- | --- | --- | --- | --- | --- | --- | --- | --- | --- | --- | --- | --- |
| CO[C@@]1(NC(=O)C(C(=O)O)c2ccc(O)cc2)C(=O)N2C(C(=O)O)=C(CSc3nnnn3C)CO[C@@H]21 (some centres unmarked) [Moxalactam] | Ind (Indifference (Ind)) | 1.06-1.50 | 1.00-1.25 | Ad (Additivity (Ad)) | 0.75-1.25 | 0.56-1.25 | Ind (Indifference (Ind)) | 1.00-1.25 | 1 | 1 | 8 | 1 | 2 | 4 | 0.63-1.25 | 4 | 1.13-1.50 |  |
| CCn1cc(C(=O)O)c(=O)c2cc(F)c(N3CCNCC3)cc21 [Norfloxacin] | Ad (Additivity (Ad)) | 0.52-1.25 | 1.00-1.25 | Ad (Additivity (Ad)) | 0.75-1.13 | 0.56-1.25 | Ad (Additivity (Ad)) | 0.56-1.13 | 0.125 | 4 | 2 | 1 | 0.5 | 128 | 1.02-1.50 | 4 | 1.13-1.50 |  |
| CO[C@@H]1[C@@H](OC(N)=O)[C@@H](O)[C@H](Oc2ccc3c(O)c(NC(=O)c4ccc(O)c(CC=C(C)C)c4)c(=O)oc3c2C)OC1(C)C [Novobiocin] | Ind (Indifference (Ind)) | 1.03-1.50 | 0.75-1.13 | Ind (Indifference (Ind)) | 1.00-1.25 | 1.02-1.50 | Ind (Indifference (Ind)) | 1.00-1.05 | 0.25 | 2 | 128 | 0.5 | 0.25 | 0.25 | 1.03-1.50 | 4 | 1.03-1.50 |  |
| Cc1onc(-c2ccccc2)c1C(=O)N[C@@H]1C(=O)N2[C@@H]1SC(C)(C)[C@@H]2C(=O)O [Oxacillin] | Ind (Indifference (Ind)) | 1.00-1.25 | 1.06-1.50 | Ind (Indifference (Ind)) | 1.01-1.50 | 1.06-1.50 | Ind (Indifference (Ind)) | 1.06-1.50 | 16 | 2 | > 128 | 0.125 | 32 | 8 | 1.00-1.25 | 32 | 1.06-1.50 |  |
| CC1(C)S[C@@H]2[C@H](NC(=O)Cc3ccccc3)C(=O)N2[C@H]1C(=O)O [Penicillin G] | Ind (Indifference (Ind)) | 1.03-1.50 | 1.00-1.25 | Ad (Additivity (Ad)) | 0.52-1.25 | 1.00-1.25 | Ind (Indifference (Ind)) | 1.13-1.50 |  |  |  |  |  |  | 1.00-1.25 |  | 0.75-1.13 | Con (Conclusion) [2]: Ind (Indifference (Ind)); Con (Conclusion) [4]: Ind (Indifference (Ind)); Minimum inhibitory concentrations (MIC) [6]: 0.25 µg/mL; Minimum inhibitory concentrations (MIC) [7]: 0.25 µg/mL; Minimum inhibitory concentrations (MIC) [8]: 128 µg/mL; Minimum inhibitory concentrations (MIC) [9]: 0.031 µg/mL; Minimum inhibitory concentrations (MIC) [10]: 16 µg/mL; Minimum inhibitory concentrations (MIC) (S. aureus 101 [11]; S. aureus 101, 18 hours at 37° C.): 128 µg/mL; Con (Conclusion) (S. aureus 101 [12]): Ind (Indifference (Ind)); Minimum inhibitory concentrations (MIC) (S. pneumoniae 1/1 [13]): 4 µg/mL; Con (Conclusion) (S. pneumoniae 1/1 [14]): Ad (Additivity (Ad)) |
| CCN1CCN(C(=O)N[C@@H](C(=O)N[C@@H]2C(=O)N3[C@@H]2SC(C)(C)[C@@H]3C(=O)O)c2ccccc2)C(=O)C1=O [Piperacillin] | Ad (Additivity (Ad)) | 0.54-1.25 | 1.02-1.50 | Ad (Additivity (Ad)) | 0.53-1.25 | 1.06-1.50 | Ind (Indifference (Ind)) | 1.03-1.50 | 0.031 | 2 | 32 | 0.5 | 0.25 | > 128 | 1.01-1.50 | 8 | 0.63-1.13 |  |
| COc1ccc(C[C@H](N)C(=O)N[C@H]2[C@@H](O)[C@H](n3cnc4c(N(C)C)ncnc43)O[C@@H]2CO)cc1 [Puromycin] | Ind (Indifference (Ind)) | 1.06-1.50 | 0.63-1.25 | Ind (Indifference (Ind)) | 1.01-1.50 | 1.06-1.50 | Ind (Indifference (Ind)) | 1.06-1.50 | 8 | 8 | > 128 | 32 | 4 | 16 | 1.13-1.50 | 8 | 1.13-1.50 |  |
| CC[C@H]1OC(=O)[C@H](C)[C@@H](O[C@H]2C[C@@](C)(OC)[C@@H](O)[C@H](C)O2)[C@H](C)[C@@H](O[C@@H]2O[C@H](C)C[C@H](N(C)C)[C@H]2O)[C@](C)(O)C[C@@H](C)/C(=N\OCOCCOC)[C@H](C)[C@@H](O)[C@]1(C)O [Roxithromycin] | Ind (Indifference (Ind)) | 1.03-1.50 | 1.02-1.50 | Ind (Indifference (Ind)) | 1.01-1.50 | 1.06-1.50 | Ind (Indifference (Ind)) | 1.03-1.50 | 16 | 0.5 | > 128 | 1 | 0.25 | > 128 | 1.01-1.80 | 0.5 | 0.75-1.13 |  |
